Measured values as given in patent publication US20140163023A1, “DIHYDROPYRROLO PYRIMIDINE DERIVATIVES AS MTOR INHIBITORS” (Cellzome Limited, priority 2011, published 2014).

Legend:
mTOR = biological target: T1, mTOR (Homo sapiens, UniProt P42345); assay: mTOR kinobeads assay (competition binding in cell lysate, dot blot detection); conditions: 1:1 mix of Jurkat and Ramos cell lysates, read-out: Inhibition values (IC50 in μM) as determined in the kinobeads assay, mTor
T1 construct: endogenous in cells; host or cells: Jurkat (ATCC TIB-152, clone E6-1) and Ramos (ATCC CRL-1596), 1:1 lysate mix
Protocol: Determination of the Effect of the Compounds According to the Invention on mTOR
(§1) The compounds of the present invention as described were tested in the mTOR kinobeads assay as described below. Briefly, test compounds (at various concentrations) and the affinity matrix (1:1 mixture of beads with immobilized phenylthiazole ligand 1 and beads with immobilized phenylmorpholin-chromen ligand; WO 2009/098021) were added to cell lysate aliquots and allowed to bind to the proteins in the lysate sample. After the incubation time the beads with captured proteins were separated from the lysate. Bound proteins were then eluted and the presence of mTOR, PI3Kα, PI3Kβ, PI3Kγ, PI3Kδ and DNA-dependent protein kinase (DNA-PK) was detected and quantified using a specific antibody in a dot blot procedure and the Odyssey infrared detection system. Dose response curves for individual kinases were generated and IC50 values calculated. Kinobeads assays for PI3 kinases (WO-A 2008/015013) and for kinase selectivity profiling (WO 2009/098021) have been previously described.
(§2) Washing of Affinity Matrix
(§3) The affinity matrix was washed two times with 15 ml of 1×DP buffer containing 0.2% NP40 (IGEPAL® CA-630, Sigma, #13021) and then resupended in 5.5 ml of 1×DP buffer containing 0.2% NP40 (10% beads slurry).
(§4) 5×DP buffer: 250 mM Tris-HCl pH 7.4, 25% Glycerol, 7.5 mM MgCl2, 750 mM NaCl, 5 mM Na3VO4, filter the 5×-lysis buffer through 0.22 μm filter and store in aliquots at −80° C. The 5×DP buffer is diluted to 1×DP buffer containing 1 mM DTT and 25 mM NaF.
(§5) Preparation of Test Compounds
(§6) Stock solutions of test compounds were prepared in DMSO. In a 96 well plate 30 μl solution of diluted test compounds at 5 mM in DMSO were prepared. Starting with this solution a 1:3 dilution series (9 steps) was prepared. For control experiments (no test compound) a buffer containing 2% DMSO was used. Compound Pi-103 (Calbiochem catalogue number 528100) served as a positive control.
(§7) Cell Culture and Preparation of Cell Lysates
(§8) Jurkat cells (ATCC catalogue number TIB-152 Jurkat, clone E6-1) and Ramos cells (ATCC number CRL-1596) were grown in 1 litre Spinner flasks (Integra Biosciences, #182101) in suspension in RPMI 1640 medium (Invitrogen, #21875-034) supplemented with 10% Fetal Bovine Serum (Invitrogen) at a density between 0.15×10^6 and 1.2×10^6 cells/ml. Cells were harvested by centrifugation, washed once with 1×PBS buffer (Invitrogen, #14190-094) and cell pellets were frozen in liquid nitrogen and subsequently stored at −80° C.
(§9) Cells were homogenized in a Potter S homogenizer in lysis buffer: 50 mM Tris-HCl, 0.8% NP40, 5% glycerol, 150 mM NaCl, 1.5 mM MgCl2, 25 mM NaF, 1 mM sodium vanadate, 1 mM DTT, pH 7.5. One complete EDTA-free tablet (protease inhibitor cocktail, Roche Diagnostics, 1873580) per 25 ml buffer was added. The material was dounced 10 times using a mechanized POTTER S, transferred to 50 ml falcon tubes, incubated for 30 minutes on ice and spun down for 10 min at 20,000 g at 4° C. (10,000 rpm in Sorvall SLA600, precooled). The supernatant was transferred to an ultracentrifuge (UZ)-polycarbonate tube (Beckmann, 355654) and spun for 1 hour at 100.000 g at 4° C. (33.500 rpm in Ti50.2, precooled). The supernatant was transferred again to a fresh 50 ml falcon tube, the protein concentration was determined by a Bradford assay (BioRad) and samples containing 50 mg of protein per aliquot were prepared. The samples were immediately used for experiments or frozen in liquid nitrogen and stored frozen at −80° C.
(§10) Cell lysate (approximately 50 mg protein per plate) was thawed in a water bath at room temperature and then kept on ice. To the thawed cell lysate 1×DP 0.8% NP40 buffer containing protease inhibitors (1 tablet for 25 ml buffer; EDTA-free protease inhibitor cocktail; Roche Diagnostics 1873580) was added in order to reach a final protein concentration of 5 mg/ml total protein. For the kinobeads experiment a 1:1 mix of Jurkat and Ramos cell lysates was used. […]

PI3Kα = biological target: T2, PI3Kα (Homo sapiens, UniProt P42336); assay: kinobeads assay, PI3Kα; format: binding; conditions: 1:1 mix of Jurkat and Ramos cell lysates, read-out: Inhibition values (IC50 in μM) as determined in the kinobeads assay, PI3Kα
T2 construct: endogenous in cells; host or cells: Jurkat (ATCC TIB-152, clone E6-1) and Ramos (ATCC CRL-1596), 1:1 lysate mix
Protocol: as §1, §2, §3, §4, §5, §6, §7, §8, §9
as §10, with “used. The diluted cell lysate was stored on ice.” for “used.”

PI3Kβ = biological target: T3, PI3Kβ (Homo sapiens, UniProt P42338); assay: kinobeads assay, PI3Kβ; format: binding; conditions: 1:1 mix of Jurkat and Ramos cell lysates, read-out: Inhibition values (IC50 in μM) as determined in the kinobeads assay, PI3Kβ
T3 construct: endogenous in cells; host or cells: Jurkat (ATCC TIB-152, clone E6-1) and Ramos (ATCC CRL-1596), 1:1 lysate mix
Protocol: as §1, §2, §3, §4, §5, §6, §7, §8, §9
as §10, with “used. The diluted cell lysate was stored on ice.” for “used.”

PI3Kδ = biological target: T4, PI3Kδ (Homo sapiens, UniProt O00329); assay: kinobeads assay, PI3Kδ; format: binding; conditions: 1:1 mix of Jurkat and Ramos cell lysates, read-out: Inhibition values (IC50 in μM) as determined in the kinobeads assay, PI3Kδ
T4 construct: endogenous in cells; host or cells: Jurkat (ATCC TIB-152, clone E6-1) and Ramos (ATCC CRL-1596), 1:1 lysate mix
Protocol: as §1, §2, §3, §4, §5, §6, §7, §8, §9
as §10, with “used. The diluted cell lysate was stored on ice.” for “used.”

PI3Kγ = biological target: T5, PI3Kγ (Homo sapiens, UniProt P48736); assay: kinobeads assay, PI3Kγ; format: binding; conditions: 1:1 mix of Jurkat and Ramos cell lysates, read-out: Inhibition values (IC50 in μM) as determined in the kinobeads assay, PI3Kγ
T5 construct: endogenous in cells; host or cells: Jurkat (ATCC TIB-152, clone E6-1) and Ramos (ATCC CRL-1596), 1:1 lysate mix
Protocol: as §1, §2, §3, §4, §5, §6, §7, §8, §9
as §10, with “used. The diluted cell lysate was stored on ice.” for “used.”

[1] = biological target: T6, DNA-dependent protein kinase (DNA-PK) (Homo sapiens, UniProt P78527); assay: kinobeads assay, DNA-PK; format: binding; conditions: 1:1 mix of Jurkat and Ramos cell lysates, read-out: Inhibition values (IC50 in μM) as determined in the kinobeads assay, DNA-PK
T6 construct: endogenous in cells; host or cells: Jurkat (ATCC TIB-152, clone E6-1) and Ramos (ATCC CRL-1596), 1:1 lysate mix
Protocol: as §1, §2, §3, §4, §5, §6, §7, §8, §9
as §10, with “used. The diluted cell lysate was stored on ice.” for “used.”

T2 sequence (P42336 whole entry): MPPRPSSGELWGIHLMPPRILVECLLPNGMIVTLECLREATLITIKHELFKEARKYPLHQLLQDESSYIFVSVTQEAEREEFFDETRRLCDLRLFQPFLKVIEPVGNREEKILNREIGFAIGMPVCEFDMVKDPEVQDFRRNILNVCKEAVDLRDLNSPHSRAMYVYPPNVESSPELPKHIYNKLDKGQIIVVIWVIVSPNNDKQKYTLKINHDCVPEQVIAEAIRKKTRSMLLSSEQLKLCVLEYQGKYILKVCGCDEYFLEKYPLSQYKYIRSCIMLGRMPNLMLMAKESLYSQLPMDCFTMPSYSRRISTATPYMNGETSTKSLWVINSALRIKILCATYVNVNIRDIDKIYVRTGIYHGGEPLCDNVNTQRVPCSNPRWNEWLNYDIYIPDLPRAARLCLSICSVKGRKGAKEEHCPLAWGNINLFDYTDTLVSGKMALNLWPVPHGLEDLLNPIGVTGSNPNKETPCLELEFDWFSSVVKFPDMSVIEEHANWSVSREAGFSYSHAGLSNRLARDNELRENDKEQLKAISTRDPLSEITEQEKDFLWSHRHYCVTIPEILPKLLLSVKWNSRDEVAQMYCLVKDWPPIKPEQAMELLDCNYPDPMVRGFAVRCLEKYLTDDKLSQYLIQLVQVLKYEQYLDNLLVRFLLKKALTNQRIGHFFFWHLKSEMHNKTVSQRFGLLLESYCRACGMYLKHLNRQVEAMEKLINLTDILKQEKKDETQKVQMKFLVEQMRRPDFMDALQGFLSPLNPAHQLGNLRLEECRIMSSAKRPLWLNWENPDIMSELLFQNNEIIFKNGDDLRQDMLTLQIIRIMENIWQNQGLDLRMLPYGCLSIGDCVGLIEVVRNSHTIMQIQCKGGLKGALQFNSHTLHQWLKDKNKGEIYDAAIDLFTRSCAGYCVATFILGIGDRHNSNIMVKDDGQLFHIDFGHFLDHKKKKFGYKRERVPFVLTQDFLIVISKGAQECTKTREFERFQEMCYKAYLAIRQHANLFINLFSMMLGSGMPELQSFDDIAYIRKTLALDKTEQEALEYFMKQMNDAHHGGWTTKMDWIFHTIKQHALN
T2 sequence (P27986 whole entry partner): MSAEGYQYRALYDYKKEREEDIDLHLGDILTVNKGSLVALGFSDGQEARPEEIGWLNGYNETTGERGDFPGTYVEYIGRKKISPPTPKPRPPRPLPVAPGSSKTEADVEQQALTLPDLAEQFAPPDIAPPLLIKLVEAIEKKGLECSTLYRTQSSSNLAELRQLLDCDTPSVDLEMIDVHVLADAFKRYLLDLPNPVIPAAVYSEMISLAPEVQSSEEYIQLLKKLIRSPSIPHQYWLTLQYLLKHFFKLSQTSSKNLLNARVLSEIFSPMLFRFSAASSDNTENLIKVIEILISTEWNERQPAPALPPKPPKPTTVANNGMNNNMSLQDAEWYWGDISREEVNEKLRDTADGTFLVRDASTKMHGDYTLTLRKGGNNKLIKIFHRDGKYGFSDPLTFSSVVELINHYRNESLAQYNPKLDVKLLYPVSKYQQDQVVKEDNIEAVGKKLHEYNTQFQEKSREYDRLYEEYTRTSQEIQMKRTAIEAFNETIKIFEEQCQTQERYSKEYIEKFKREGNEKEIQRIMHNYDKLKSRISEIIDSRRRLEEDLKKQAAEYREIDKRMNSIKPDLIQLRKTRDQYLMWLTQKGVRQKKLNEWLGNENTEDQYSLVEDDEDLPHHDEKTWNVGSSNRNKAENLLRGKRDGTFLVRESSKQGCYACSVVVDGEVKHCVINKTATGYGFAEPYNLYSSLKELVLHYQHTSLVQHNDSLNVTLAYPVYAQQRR
T5 sequence (P48736 whole entry): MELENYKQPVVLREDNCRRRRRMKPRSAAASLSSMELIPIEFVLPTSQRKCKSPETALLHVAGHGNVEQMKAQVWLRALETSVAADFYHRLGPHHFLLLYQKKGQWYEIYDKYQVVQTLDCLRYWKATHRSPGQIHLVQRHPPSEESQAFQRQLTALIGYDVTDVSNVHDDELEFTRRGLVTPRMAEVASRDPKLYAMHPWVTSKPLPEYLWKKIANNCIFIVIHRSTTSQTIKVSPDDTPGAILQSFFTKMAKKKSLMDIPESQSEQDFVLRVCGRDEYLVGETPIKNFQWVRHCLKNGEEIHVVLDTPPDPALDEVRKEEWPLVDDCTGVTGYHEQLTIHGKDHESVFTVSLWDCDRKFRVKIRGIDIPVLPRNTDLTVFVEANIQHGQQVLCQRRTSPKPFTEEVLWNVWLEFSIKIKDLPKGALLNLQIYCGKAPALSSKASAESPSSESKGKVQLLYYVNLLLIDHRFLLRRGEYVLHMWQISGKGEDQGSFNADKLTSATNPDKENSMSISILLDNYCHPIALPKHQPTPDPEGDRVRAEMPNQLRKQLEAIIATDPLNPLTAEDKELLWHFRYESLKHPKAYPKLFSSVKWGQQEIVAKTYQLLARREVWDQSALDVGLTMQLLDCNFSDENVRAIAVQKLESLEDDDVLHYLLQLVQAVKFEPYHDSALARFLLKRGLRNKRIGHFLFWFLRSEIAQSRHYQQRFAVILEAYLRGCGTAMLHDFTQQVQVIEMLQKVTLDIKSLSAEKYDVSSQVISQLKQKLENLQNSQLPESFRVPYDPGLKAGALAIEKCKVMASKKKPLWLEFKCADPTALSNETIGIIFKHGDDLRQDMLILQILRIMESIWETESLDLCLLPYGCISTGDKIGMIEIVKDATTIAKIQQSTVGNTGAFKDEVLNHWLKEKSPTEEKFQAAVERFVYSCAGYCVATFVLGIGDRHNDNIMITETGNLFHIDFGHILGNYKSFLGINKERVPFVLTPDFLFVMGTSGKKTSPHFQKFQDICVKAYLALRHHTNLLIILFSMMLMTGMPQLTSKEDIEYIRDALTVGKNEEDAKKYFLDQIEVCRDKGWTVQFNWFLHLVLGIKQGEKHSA
T3 sequence (P42338 whole entry): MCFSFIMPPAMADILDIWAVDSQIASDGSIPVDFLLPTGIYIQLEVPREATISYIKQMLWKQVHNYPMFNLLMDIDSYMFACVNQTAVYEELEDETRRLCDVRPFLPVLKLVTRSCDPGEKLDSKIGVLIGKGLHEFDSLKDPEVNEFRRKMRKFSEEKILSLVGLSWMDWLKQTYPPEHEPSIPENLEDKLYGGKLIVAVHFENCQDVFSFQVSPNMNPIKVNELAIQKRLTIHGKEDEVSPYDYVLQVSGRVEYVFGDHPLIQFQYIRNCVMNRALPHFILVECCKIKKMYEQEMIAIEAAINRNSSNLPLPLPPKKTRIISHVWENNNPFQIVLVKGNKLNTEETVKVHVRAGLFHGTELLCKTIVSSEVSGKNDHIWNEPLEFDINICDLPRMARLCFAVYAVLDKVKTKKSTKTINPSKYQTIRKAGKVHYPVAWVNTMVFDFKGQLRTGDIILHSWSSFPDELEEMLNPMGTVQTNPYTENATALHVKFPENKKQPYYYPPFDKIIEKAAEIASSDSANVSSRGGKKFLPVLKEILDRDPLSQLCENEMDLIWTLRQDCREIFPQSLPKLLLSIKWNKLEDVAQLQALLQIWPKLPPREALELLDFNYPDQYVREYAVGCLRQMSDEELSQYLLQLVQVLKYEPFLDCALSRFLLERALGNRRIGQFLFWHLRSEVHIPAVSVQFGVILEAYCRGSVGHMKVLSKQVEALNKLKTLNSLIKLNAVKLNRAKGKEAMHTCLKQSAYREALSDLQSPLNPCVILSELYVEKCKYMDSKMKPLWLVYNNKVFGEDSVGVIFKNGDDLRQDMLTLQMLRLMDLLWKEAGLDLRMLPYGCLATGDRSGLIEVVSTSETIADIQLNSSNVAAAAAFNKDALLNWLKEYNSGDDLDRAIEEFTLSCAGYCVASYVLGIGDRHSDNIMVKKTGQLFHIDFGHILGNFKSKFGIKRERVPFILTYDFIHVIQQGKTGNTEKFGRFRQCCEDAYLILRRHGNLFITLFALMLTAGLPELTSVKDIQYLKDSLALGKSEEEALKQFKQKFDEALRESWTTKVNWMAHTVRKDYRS
T3 sequence (P27986 whole entry partner): as the sequence (P27986 whole entry partner) above
T4 sequence (O00329 whole entry): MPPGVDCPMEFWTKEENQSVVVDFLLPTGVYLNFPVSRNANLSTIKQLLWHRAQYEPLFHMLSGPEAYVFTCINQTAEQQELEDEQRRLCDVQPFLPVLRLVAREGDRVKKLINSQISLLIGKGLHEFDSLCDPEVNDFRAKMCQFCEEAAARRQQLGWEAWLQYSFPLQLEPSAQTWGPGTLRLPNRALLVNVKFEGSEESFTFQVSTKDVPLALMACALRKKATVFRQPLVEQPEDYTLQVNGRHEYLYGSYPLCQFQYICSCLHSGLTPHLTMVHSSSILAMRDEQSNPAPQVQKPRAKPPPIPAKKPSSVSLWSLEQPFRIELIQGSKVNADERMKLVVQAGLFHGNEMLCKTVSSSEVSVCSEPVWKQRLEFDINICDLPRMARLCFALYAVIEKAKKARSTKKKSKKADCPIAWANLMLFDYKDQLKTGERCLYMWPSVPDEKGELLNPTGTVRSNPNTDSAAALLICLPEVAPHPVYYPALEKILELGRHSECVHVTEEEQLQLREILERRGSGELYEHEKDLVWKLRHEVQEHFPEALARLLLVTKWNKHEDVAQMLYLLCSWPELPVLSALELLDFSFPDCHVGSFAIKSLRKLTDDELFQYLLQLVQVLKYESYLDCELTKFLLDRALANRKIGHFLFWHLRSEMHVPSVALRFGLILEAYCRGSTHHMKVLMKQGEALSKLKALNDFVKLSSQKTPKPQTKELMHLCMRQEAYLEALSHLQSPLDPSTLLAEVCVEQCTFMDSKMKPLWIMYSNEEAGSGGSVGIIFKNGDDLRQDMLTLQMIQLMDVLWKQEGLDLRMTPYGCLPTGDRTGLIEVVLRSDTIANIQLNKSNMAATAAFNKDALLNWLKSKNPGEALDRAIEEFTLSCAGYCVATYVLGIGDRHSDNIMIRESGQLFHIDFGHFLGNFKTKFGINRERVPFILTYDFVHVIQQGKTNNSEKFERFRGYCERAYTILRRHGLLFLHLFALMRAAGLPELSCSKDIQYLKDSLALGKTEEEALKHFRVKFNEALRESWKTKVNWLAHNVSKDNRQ
T4 sequence (P27986 whole entry partner): as the sequence (P27986 whole entry partner) above

Compound	IC50 (mTOR)	IC50 (PI3Kα)	IC50 (PI3Kβ)	IC50 (PI3Kδ)	IC50 (PI3Kγ)	IC50 [1]
O=C(Nc1ccc(-c2nc(N3CCOCC3)nc3c2CNC3)cc1)NC1CC1 [Example 5, 1-cyclopropyl-3-(4-(2-morpholino-6,7-dihydro-5H-pyrrolo[3,4-d]pyrimidin-4-yl)phenyl)urea]	0.1 to 1 µM	10 to 100 µM	10 to 100 µM	10 to 100 µM	10 to 100 µM	10 to 100 µM
NC(=O)Nc1ccc(-c2nc(N3CCOCC3)nc3c2CNC3)cc1 [Example 6, 1-(4-(2-morpholino-6,7-dihydro-5H-pyrrolo[3,4-d]pyrimidin-4-yl)phenyl)urea]	0.1 to 1 µM	1 to 10 µM	1 to 10 µM	1 to 10 µM	1 to 10 µM	10 to 100 µM
CCNC(=O)Nc1ccc(-c2nc(N3CCOCC3)nc3c2CN(C(=O)OCC)C3)cc1 [Example 7, ethyl 4-(4-(3-ethylureido)phenyl)-2-morpholino-5H-pyrrolo[3,4-d]pyrimidine-6(7H)-carboxylate]	1 to 10 µM	> 100 µM	> 100 µM	> 100 µM	> 100 µM	> 100 µM
CCNC(=O)Nc1ccc(-c2nc(N3CCOC[C@@H]3C)nc3c2CN(C(=O)OCC)C3)cc1 [Example 8, (S)-ethyl 4-(4-(3-ethylureido)phenyl)-2-(3-methylmorpholino)-5H-pyrrolo[3,4-d]pyrimidine-6(7H)-carboxylate]	10 to 100 µM	> 100 µM	> 100 µM	> 100 µM	> 100 µM	> 100 µM
CCOC(=O)N1Cc2nc(N3CCOC[C@@H]3C)nc(-c3ccc(NC(=O)NC4CC4)cc3)c2C1 [Example 9, (S)-ethyl 4-(4-(3-cyclopropylureido)phenyl)-2-(3-methylmorpholino)-5H-pyrrolo[3,4-d]pyrimidine-6(7H)-carboxylate]	1 to 10 µM	> 100 µM	> 100 µM	> 100 µM	> 100 µM	> 100 µM
C[C@H]1COCCN1c1nc2c(c(-c3ccc(NC(=O)NC4CC4)cc3)n1)CN(C)C2 [Example 11, (S)-1-cyclopropyl-3-(4-(6-methyl-2-(3-methylmorpholino)-6,7-dihydro-5H-pyrrolo[3,4-d]pyrimidin-4-yl)phenyl)urea]	0.1 to 1 µM	10 to 100 µM	10 to 100 µM	10 to 100 µM	10 to 100 µM	10 to 100 µM
CC(=O)N1Cc2nc(N3CCOC[C@@H]3C)nc(-c3ccc(NC(=O)NC4CC4)cc3)c2C1 [Example 12, (S)-1-(4-(6-acetyl-2-(3-methylmorpholino)-6,7-dihydro-5H-pyrrolo[3,4-d]pyrimidin-4-yl)phenyl)-3-cyclopropylurea]	1 to 10 µM	10 to 100 µM	10 to 100 µM	10 to 100 µM	> 100 µM	> 100 µM
CC(C)N1Cc2nc(N3CCOC[C@@H]3C)nc(-c3ccc(NC(=O)NC4CC4)cc3)c2C1 [Example 13, (S)-1-cyclopropyl-3-(4-(6-isopropyl-2-(3-methylmorpholino)-6,7-dihydro-5H-pyrrolo[3,4-d]pyrimidin-4-yl)phenyl)urea]	0.1 to 1 µM	> 100 µM	> 100 µM	> 100 µM	> 100 µM	> 100 µM
C[C@H]1COCCN1c1nc2c(c(-c3ccc(NC(=O)NC4CC4)cc3)n1)CN(C1CC1)C2 [Example 14, (S)-1-cyclopropyl-3-(4-(6-cyclopropyl-2-(3-methylmorpholino)-6,7-dihydro-5H-pyrrolo[3,4-d]pyrimidin-4-yl)phenyl)urea]	1 to 10 µM	> 100 µM	> 100 µM	> 100 µM	> 100 µM	> 100 µM

The remaining lines, values ahead:

IC50 (mTOR)	IC50 (PI3Kα)	IC50 (PI3Kβ)	IC50 (PI3Kδ)	IC50 (PI3Kγ)	IC50 [1]	Compound
0.1 to 1 µM	10 to 100 µM	10 to 100 µM	10 to 100 µM	10 to 100 µM	> 100 µM	C[C@H]1COCCN1c1nc2c(c(-c3ccc(NC(=O)NC4CC4)cc3)n1)CNC2 [Example 1, (S)-1-cyclopropyl-3-(4-(2-(3-methylmorpholino)-6,7-dihydro-5H-pyrrolo[3,4-d]pyrimidin-4-yl)phenyl)urea]
0.1 to 1 µM	10 to 100 µM	10 to 100 µM	10 to 100 µM	10 to 100 µM	10 to 100 µM	CCNC(=O)Nc1ccc(-c2nc(N3CCOC[C@@H]3C)nc3c2CNC3)cc1 [Example 2, (S)-1-ethyl-3-(4-(2-(3-methylmorpholino)-6,7-dihydro-5H-pyrrolo[3,4-d]pyrimidin-4-yl)phenyl)urea]
0.1 to 1 µM	10 to 100 µM	10 to 100 µM	10 to 100 µM	10 to 100 µM	> 100 µM	CCNC(=O)Nc1ccc(-c2nc(N3CCOC[C@@H]3C)nc3c2CN(C=O)C3)cc1 [Example 3, (S)-1-ethyl-3-(4-(6-formyl-2-(3-methylmorpholino)-6,7-dihydro-5H-pyrrolo[3,4-d]pyrimidin-4-yl)phenyl)urea]
0.1 to 1 µM	1 to 10 µM	10 to 100 µM	10 to 100 µM	10 to 100 µM	10 to 100 µM	CCNC(=O)Nc1ccc(-c2nc(N3CCOCC3)nc3c2CNC3)cc1 [Example 4, 1-ethyl-3-(4-(2-morpholino-6,7-dihydro-5H-pyrrolo[3,4-d]pyrimidin-4-yl)phenyl)urea]
10 to 100 µM	10 to 100 µM	> 100 µM	> 100 µM	> 100 µM	> 100 µM	CCOC(=O)Nc1ccc(-c2nc(N3CCOC[C@@H]3C)nc3c2CNC3)cc1 [Example 10, (S)-ethyl (4-(2-(3-methylmorpholino)-6,7-dihydro-5H-pyrrolo[3,4-d]pyrimidin-4-yl)phenyl)carbamate]
